Assay results taken from ChEMBL document CHEMBL1201862, “PubChem BioAssay data set” (2004).
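Assay format: 96-well plates, 48-hour exposure. Here, GI50 denotes the concentration required for 50% inhibition of growth.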 Activity calls are given as the source filed them. No stated cut-off is given here; in the data, active = GI50 up to about 1.1 µM and inactive = higher.

How the values were obtained:
Assay in all cases: NCI-60 cell line screen, 48 h
[1] = tested on: SR
[2] = tested on: COLO 205
[3] = tested on: MDA-MB-231
[4] = tested on: MOLT-4
[5] = tested on: SK-OV-3
[6] = tested on: NCI-H23
[7] = tested on: NCI/ADR-RES
[8] = tested on: SW-620
[9] = tested on: M14
[10] = tested on: SF-295
[11] = tested on: SK-MEL-2
[12] = tested on: HT-29
[13] = tested on: SNB-75
[14] = tested on: SF-539
[15] = tested on: SK-MEL-28
[16] = tested on: MDA-N
[17] = tested on: IGROV-1
[18] = tested on: TK-10
[19] = tested on: BT-549
[20] = tested on: MDA-MB-435
[21] = tested on: PC-3
[22] = tested on: EKVX
[23] = tested on: Hs-578T
[24] = tested on: ACHN
[25] = tested on: SF-268
[26] = tested on: Malme-3M
[27] = tested on: HOP-62
[28] = tested on: SNB-19
[29] = tested on: KM12
[30] = tested on: U-251
[31] = tested on: SN12C
[32] = tested on: LOX IMVI
[33] = tested on: T47D
[34] = tested on: HCC 2998
[35] = tested on: A498
[36] = tested on: NCI-H226
[37] = tested on: HL-60
[38] = tested on: UACC-257
[39] = tested on: MCF7
[40] = tested on: UO-31
[41] = tested on: A549
[42] = tested on: CCRF-CEM
[43] = tested on: HCT-116
[44] = tested on: K562
[45] = tested on: 786-0
[46] = tested on: DU-145
[47] = tested on: OVCAR-5
[48] = tested on: OVCAR-4
[49] = tested on: OVCAR-3
[50] = tested on: RXF 393
[51] = tested on: OVCAR-8
[52] = tested on: NCI-H460
[53] = tested on: UACC-62
[54] = tested on: HCT-15
[55] = tested on: NCI-H522
[56] = tested on: SK-MEL-5
[57] = tested on: RPMI-8226
[58] = tested on: CAKI-1

CCN(CC)C(=S)N/N=C/c1cc([N+](=O)[O-])ccc1O
GI50 [1]: 1.74 µM (inactive) | GI50 [2]: 3.4 µM (inactive) | GI50 [3]: 8.18 µM (inactive) | GI50 [4]: 1.8 µM (inactive) | GI50 [5]: 3.95 µM (inactive) | GI50 [6]: 6.59 µM (inactive) | GI50 [7]: 3.01 µM (inactive) | GI50 [8]: 6.35 µM (inactive) | GI50 [9]: 4.17 µM (inactive) | GI50 [10]: 4.56 µM (inactive) | GI50 [11]: 16.4 µM (inactive) | GI50 [12]: 5.45 µM (inactive) | GI50 [13]: 9.27 µM (inactive) | GI50 [14]: 6.15 µM (inactive) | GI50 [15]: 5.11 µM (inactive) | GI50 [16]: 5.43 µM (inactive) | GI50 [17]: 3.65 µM (inactive) | GI50 [18]: 8.87 µM (inactive) | GI50 [19]: 4.54 µM (inactive) | GI50 [20]: 5.48 µM (inactive) | GI50 [21]: 4.92 µM (inactive) | GI50 [22]: 4.56 µM (inactive) | GI50 [23]: 53.2 µM (inactive) | GI50 [24]: 3.36 µM (inactive) | GI50 [25]: 3.66 µM (inactive) | GI50 [26]: 6.68 µM (inactive) | GI50 [27]: 7.4 µM (inactive) | GI50 [28]: 9.16 µM (inactive) | GI50 [29]: 4.07 µM (inactive) | GI50 [30]: 4.24 µM (inactive) | GI50 [31]: 4.88 µM (inactive) | GI50 [32]: 3.01 µM (inactive) | GI50 [33]: 5.13 µM (inactive) | GI50 [34]: 8.53 µM (inactive) | GI50 [35]: 2.25 µM (inactive) | GI50 [36]: 2.31 µM (inactive) | GI50 [37]: 1.69 µM (inactive) | GI50 [38]: 8.53 µM (inactive) | GI50 [39]: 2.22 µM (inactive) | GI50 [40]: 3.12 µM (inactive) | GI50 [41]: 12.8 µM (inactive) | GI50 [42]: 1.26 µM (inactive) | GI50 [43]: 2.75 µM (inactive) | GI50 [44]: 3.18 µM (inactive) | GI50 [45]: 2.99 µM (inactive) | GI50 [46]: 4.56 µM (inactive) | GI50 [47]: 24.3 µM (inactive) | GI50 [48]: 3.65 µM (inactive) | GI50 [49]: 0.0528 µM (active) | GI50 [50]: 6.97 µM (inactive) | GI50 [51]: 3.56 µM (inactive) | GI50 [52]: 3 µM (inactive) | GI50 [53]: 3.27 µM (inactive) | GI50 [54]: 3.62 µM | GI50 [55]: 5.07 µM (inactive) | GI50 [56]: 2.02 µM (inactive)

N#Cc1ncn(CCO)c1N
GI50 [1]: > 100 µM (inactive) | GI50 [2]: > 100 µM (inactive) | GI50 [3]: > 100 µM (inactive) | GI50 [4]: > 100 µM (inactive) | GI50 [5]: > 100 µM (inactive) | GI50 [6]: > 100 µM (inactive) | GI50 [7]: > 100 µM (inactive) | GI50 [8]: > 100 µM (inactive) | GI50 [9]: > 100 µM (inactive) | GI50 [10]: > 100 µM (inactive) | GI50 [11]: > 100 µM (inactive) | GI50 [12]: > 100 µM (inactive) | GI50 [13]: > 100 µM (inactive) | GI50 [14]: > 100 µM (inactive) | GI50 [15]: > 100 µM (inactive) | GI50 [16]: > 100 µM (inactive) | GI50 [17]: > 100 µM (inactive) | GI50 [18]: > 100 µM (inactive) | GI50 [19]: > 100 µM (inactive) | GI50 [20]: > 100 µM (inactive) | GI50 [57]: > 100 µM (inactive) | GI50 [21]: > 100 µM (inactive) | GI50 [22]: > 100 µM (inactive) | GI50 [23]: > 100 µM (inactive) | GI50 [24]: > 100 µM (inactive) | GI50 [58]: > 100 µM (inactive) | GI50 [25]: > 100 µM (inactive) | GI50 [26]: > 100 µM (inactive) | GI50 [27]: > 100 µM (inactive) | GI50 [28]: > 100 µM (inactive) | GI50 [29]: > 100 µM (inactive) | GI50 [30]: > 100 µM (inactive) | GI50 [31]: > 100 µM (inactive) | GI50 [32]: > 100 µM (inactive) | GI50 [33]: > 100 µM (inactive) | GI50 [34]: > 100 µM (inactive) | GI50 [35]: > 100 µM (inactive) | GI50 [36]: > 100 µM (inactive) | GI50 [37]: > 100 µM (inactive) | GI50 [38]: > 100 µM (inactive) | GI50 [39]: > 100 µM (inactive) | GI50 [40]: > 100 µM (inactive) | GI50 [41]: > 100 µM (inactive) | GI50 [42]: > 100 µM (inactive) | GI50 [43]: > 100 µM (inactive) | GI50 [44]: > 100 µM (inactive) | GI50 [45]: > 100 µM (inactive) | GI50 [46]: > 100 µM (inactive) | GI50 [47]: > 100 µM (inactive) | GI50 [48]: > 100 µM (inactive) | GI50 [49]: > 100 µM (inactive) | GI50 [51]: > 100 µM (inactive) | GI50 [52]: > 100 µM (inactive) | GI50 [53]: > 100 µM (inactive) | GI50 [54]: > 100 µM | GI50 [55]: > 100 µM (inactive) | GI50 [56]: > 100 µM (inactive)
